According to patent US20250376483A1, “PRODRUGS OF PAN-KRAS INHIBITORS” (Mirati Therapeutics, Inc., priority 2022, published 2025):

Key:
[1] = Whole Blood Stability Assay (mouse whole blood); assay type: in vitro ADME; settings: CD-1 mouse blood, EDTA-K2, final conc. 2 μM, 37° C., 0-120 min; for half-life at 2 μM: male, fresh whole blood, read-out: Mouse Whole Blood Stability t1/2
Protocol: Whole Blood Stability Assay
This Example illustrates that exemplary compounds of the present invention is cleavage in mouse whole blood.
(§1) Test Compounds and Stock Solutions: Stock Conc. 10 mM; Final Conc. 2 μM
(§2) Test Compound and Control Working Solution Preparation:
• Intermediate solution: 5 μL of compound stock solution (10 mM in dimethyl sulfoxide (DMSO)) were diluted with […] of DMSO (intermediate solution concentration: 1 mM, 100% DMSO) • Propantheline bromide (control) intermediate solution: 5 μL of propantheline stock solution (10 mM in ultra-pure water) were diluted with 45 μL of ultra-pure water (intermediate solution concentration: 1 mM) • Working solution 1: 20 μL of test compound intermediate solution (1 mM) were diluted with 180 μL of 45% ACN/H2O (working solution concentration: […], 40.5% ACN, 10% DMSO) • Working solution 2: 20 μL of control intermediate solution (1 mM) were diluted with 180 μL of 45% ACN/H2O (working solution concentration: 100 μM, 40.5% ACN, 10% DMSO) • Species/Matrix: CD-1 Mouse Blood • No. of Individuals: n>3 Male • Anticoagulant Used: EDTA-K2
• The fresh blood was collected on the day of experiment and pre-warmed in a water bath at 37° C. • Using an Apricot automation workstation, 98 μL/well of blank blood were added to all 96-well reaction plates (Blank, T0, T10, T30, T60 and T120). • An Apricot automation workstation was used to add 2 μL/well of working solution (100 μM) to all reaction plates except Blank (T0, T10, T30, T60 and T120). • All reaction plates containing mixtures of compound and blood were incubated at 37° C. in water bath. • The reaction plates were incubated at 37° C., and timer was started. • At the end of incubation, mixed 100 μL water with 100 μL spiked blood samples, then added 800 μL of stop solution (200 ng/mL tolbutamide and 200 ng/mL labetalol in ACN) to precipitate protein. Mixed thoroughly. • Each plate was sealed and shaken for 20 minutes. • After shaking, each plate was centrifuged at 4000 rpm and 4° C. for 20 minutes. • After centrifugation, an Apricot automation workstation was used to transfer 150 μL of supernatant from each reaction plate to its corresponding bioanalysis plate. • Each bioanalysis plate was submitted to LC-MS/MS analysis.
• The % remaining of test compound after incubation in blood was calculated using following equation:
(§3) [formula] • where PAR is the peak area ratio of analyte versus internal standard (IS) • The appointed incubation time points are TO (0 min), Tn (n=0, 10, 30, 60 and 120 min)

[2] = Plasma Stability Assay (human plasma); assay type: in vitro ADME; settings: both sexes; pooled human plasma, heparin, final conc. 2 μM, 37° C., 0-120 min; read-out: Human Plasma Stability t1/2
Protocol: This Example illustrates that exemplary compounds of the present invention is cleavage in human plasma.
as §1, §2
• Test compound intermediate solution: 10 μL of compound stock solution (10 mM in dimethyl sulfoxide (DMSO)) were diluted with 90 μL of DMSO (intermediate solution concentration: 1 mM, 100% DMSO) • Control intermediate solution: 10 μL of control stock solution (10 mM in dimethyl sulfoxide (DMSO)) were diluted with 90 μL of DMSO (intermediate solution concentration: 1 mM, 100% DMSO) • Species/Matrix: Human Plasma • No. of Individuals: 3 Male & 3 Female • Anticoagulant Used: Heparin
• The pooled frozen plasma was thawed in a water bath at 37° C. prior to experiment. Plasma was centrifuged at 4000 rpm for 5 min and the clots were removed if any. • Using an Apricot automation workstation, 98 μL/well of blank plasma were added to all 96-well reaction plates. (Blank, T0, T10, T30, T60 and T120) • An Apricot automation workstation was used to add 2 μL/well of working solution (100 μM) to all reaction plates except Blank. (T0, T10, T30, T60 and T120) • All reaction plates containing mixtures of compound and plasma were incubated at 37° C. in water bath. • The reaction plates were incubated at 37° C., and timer was started. • At the end of incubation, added 500 μL of stop solution (200 ng/mL tolbutamide and 200 ng/mL labetalol in ACN) to precipitate protein. Mixed thoroughly. • Each plate was sealed and shaken for 20 minutes. • After shaking, each plate was centrifuged at 4000 rpm and 4° C. for 20 minutes • After centrifugation, an Apricot automation workstation was used to transfer 50 μL supernatant into 100 μL HPLC water. • Each bioanalysis plate was sealed and shaken for 10 minutes prior to LC-MS/MS analysis Data Analysis • The % remaining of test compound after incubation in blood was calculated using following equation:
as §3

| Compound | half-life at 2 μM [1] [min] | half-life at 2 μM [2] [min] | Mouse Whole Blood Stability t1/2 [1] [min] |
| --- | --- | --- | --- |
| CCCCCCCC(=O)Oc1cc(N2CCc3c(nc(OC[C@@]45CCCN4C[C@H](F)C5)nc3N3CCC[C@]4(C3)NC(=O)NC4=O)C2)c2c(CC)c(F)ccc2c1 [Example 50, 4-(4-((R)-2,4-dioxo-1,3,7-triazaspiro[4.5]decan-7-yl)-2-(((2R,7aS)-2-fluorotetrahydro-1H-pyrrolizin-7a(5H)-yl)methoxy)-5,8-dihydropyrido[3,4-d]pyrimidin-7(6H)-yl)-5-ethyl-6-fluoronaphthalen-2-yl octanoate] | 13 | 235 |  |
| CCc1c(F)ccc2cc(OC(=O)C(C)C)cc(-c3ncc4c(N5C[C@@H]6C[C@H](C5)[C@H](O)C6)nc(OC[C@@]56CCCN5C[C@H](F)C6)nc4c3F)c12 [Example 3, 5-ethyl-6-fluoro-4-(8-fluoro-2-(((2R,7aS)-2-fluorotetrahydro-1H-pyrrolizin-7a(5H)-yl)methoxy)-4-((1R,5R,6R)-6-hydroxy-3-azabicyclo[3.2.1]octan-3-yl)pyrido[4,3-d]pyrimidin-7-yl)naphthalen-2-yl isobutyrate] | 3 | 27 |  |
| CCc1c(F)ccc2cc(OC(=O)OC)cc(-c3ncc4c(N5C[C@@H]6C[C@H](C5)[C@H](O)C6)nc(OC[C@@]56CCCN5C[C@H](F)C6)nc4c3F)c12 [Example 9, 5-ethyl-6-fluoro-4-(8-fluoro-2-(((2R,7aS)-2-fluorotetrahydro-1H-pyrrolizin-7a(5H)-yl)methoxy)-4-((1R,5R,6R)-6-hydroxy-3-azabicyclo[3.2.1]octan-3-yl)pyrido[4,3-d]pyrimidin-7-yl)naphthalen-2-yl methyl carbonate] |  | 9 | 1 |
| CCc1c(F)ccc2cc(OC(=O)C34CCC(CC3)CC4)cc(N3CCc4c(nc(OC[C@@]56CCCN5C[C@H](F)C6)nc4N4CCC[C@]5(C4)NC(=O)NC5=O)C3)c12 [Example 66, 4-(4-((R)-2,4-dioxo-1,3,7-triazaspiro[4.5]decan-7-yl)-2-(((2R,7aS)-2-fluorotetrahydro-1H-pyrrolizin-7a(5H)-yl)methoxy)-5,8-dihydropyrido[3,4-d]pyrimidin-7(6H)-yl)-5-ethyl-6-fluoronaphthalen-2-yl bicyclo[2.2.2]octane-1-carboxylate] | 7 | > 289 |  |
| CCCCCCCCCC(=O)Oc1cc(-c2ncc3c(N4C[C@@H]5C[C@H](C4)[C@H](O)C5)nc(OC[C@@]45CCCN4C[C@H](F)C5)nc3c2F)c2c(CC)c(F)ccc2c1 [Example 25, 5-ethyl-6-fluoro-4-(8-fluoro-2-(((2R,7aS)-2-fluorotetrahydro-1H-pyrrolizin-7a(5H)-yl)methoxy)-4-((1R,5R,6R)-6-hydroxy-3-azabicyclo[3.2.1]octan-3-yl)pyrido[4,3-d]pyrimidin-7-yl)naphthalen-2-yl decanoate] |  | 77 | 1 |
| CCc1c(F)ccc2cc(OC(=O)N3CCC[C@@H](C)C3)cc(N3CCc4c(nc(OC[C@@]56CCCN5C[C@H](F)C6)nc4N4CCC[C@]5(C4)NC(=O)NC5=O)C3)c12 [Example 58, 4-(4-((R)-2,4-dioxo-1,3,7-triazaspiro[4.5]decan-7-yl)-2-(((2R,7aS)-2-fluorotetrahydro-1H-pyrrolizin-7a(5H)-yl)methoxy)-5,8-dihydropyrido[3,4-d]pyrimidin-7(6H)-yl)-5-ethyl-6-fluoronaphthalen-2-yl (R)-3-methylpiperidine-1-carboxylate] | > 289 | > 289 |  |
| CCCCCCCC(=O)Oc1cc(-c2ncc3c(N4C[C@@H]5C[C@H](C4)[C@H](O)C5)nc(OC[C@@]45CCCN4C[C@H](F)C5)nc3c2F)c2c(CC)c(F)ccc2c1 [Example 24, 5-ethyl-6-fluoro-4-(8-fluoro-2-(((2R,7aS)-2-fluorotetrahydro-1H-pyrrolizin-7a(5H)-yl)methoxy)-4-((1R,5R,6R)-6-hydroxy-3-azabicyclo[3.2.1]octan-3-yl)pyrido[4,3-d]pyrimidin-7-yl)naphthalen-2-yl octanoate] |  | 65 | 1 |
| CCc1c(F)ccc2cc(OC(=O)N3CCCCC3)cc(N3CCc4c(nc(OC[C@@]56CCCN5C[C@H](F)C6)nc4N4CCC[C@]5(C4)NC(=O)NC5=O)C3)c12 [Example 48, 4-(4-((R)-2,4-dioxo-1,3,7-triazaspiro[4.5]decan-7-yl)-2-(((2R,7aS)-2-fluorotetrahydro-1H-pyrrolizin-7a(5H)-yl)methoxy)-5,8-dihydropyrido[3,4-d]pyrimidin-7(6H)-yl)-5-ethyl-6-fluoronaphthalen-2-yl piperidine-1-carboxylate] | 106 | > 289 |  |
| CCc1c(F)ccc2cc(OC(=O)N(C)C)cc(N3CCc4c(nc(OC[C@@]56CCCN5C[C@H](F)C6)nc4N4CCC[C@]5(C4)NC(=O)NC5=O)C3)c12 [Example 35, 4-(4-((R)-2,4-dioxo-1,3,7-triazaspiro[4.5]decan-7-yl)-2-(((2R,7aS)-2-fluorotetrahydro-1H-pyrrolizin-7a(5H)-yl)methoxy)-5,8-dihydropyrido[3,4-d]pyrimidin-7(6H)-yl)-5-ethyl-6-fluoronaphthalen-2-yl dimethylcarbamate] | > 289 | > 289 |  |
| CCc1c(F)ccc2cc(OC(=O)C3CC3)cc(N3CCc4c(nc(OC[C@@]56CCCN5C[C@H](F)C6)nc4N4CCC[C@]5(C4)NC(=O)NC5=O)C3)c12 [Example 32, 4-(4-((R)-2,4-dioxo-1,3,7-triazaspiro[4.5]decan-7-yl)-2-(((2R,7aS)-2-fluorotetrahydro-1H-pyrrolizin-7a(5H)-yl)methoxy)-5,8-dihydropyrido[3,4-d]pyrimidin-7(6H)-yl)-5-ethyl-6-fluoronaphthalen-2-yl cyclopropanecarboxylate] | 2 | 51 |  |
| CCCC(=O)Oc1cc(-c2ncc3c(N4C[C@@H]5C[C@H](C4)[C@H](O)C5)nc(OC[C@@]45CCCN4C[C@H](F)C5)nc3c2F)c2c(CC)c(F)ccc2c1 [Example 11, 5-ethyl-6-fluoro-4-(8-fluoro-2-(((2R,7aS)-2-fluorotetrahydro-1H-pyrrolizin-7a(5H)-yl)methoxy)-4-((1R,5R,6R)-6-hydroxy-3-azabicyclo[3.2.1]octan-3-yl)pyrido[4,3-d]pyrimidin-7-yl)naphthalen-2-yl butyrate] | < 5 | 46 |  |
| CCc1c(F)ccc2cc(OC(=O)N3CCCC[C@H]3C)cc(N3CCc4c(nc(OC[C@@]56CCCN5C[C@H](F)C6)nc4N4CCC[C@]5(C4)NC(=O)NC5=O)C3)c12 [Example 57, 4-(4-((R)-2,4-dioxo-1,3,7-triazaspiro[4.5]decan-7-yl)-2-(((2R,7aS)-2-fluorotetrahydro-1H-pyrrolizin-7a(5H)-yl)methoxy)-5,8-dihydropyrido[3,4-d]pyrimidin-7(6H)-yl)-5-ethyl-6-fluoronaphthalen-2-yl (R)-2-methylpiperidine-1-carboxylate] | > 289 | > 289 |  |
